One assay deals with IGF1R (Homo sapiens, UniProt P08069). Put plainly: Enzyme selectivity panel. Format: biochemical. The note with it: 1 mM ATP.
For a further assay, the target named is MAPKAPK2 (Homo sapiens, UniProt P49137). Kind of assay: Enzyme selectivity panel. Conditions: 1 mM ATP. Format: biochemical.
For another assay, the target named is EGFR (Homo sapiens, UniProt P00533). Put plainly: Enzyme selectivity panel. Type of assay: biochemical. Conditions: 1 mM ATP.
Assay [1] has as its system RT-112 (FGFR3-TACC3 fusion positive) bladder carcinoma model. Kind of assay: RT-112 xenograft efficacy. Format: in vivo, Rowett Nude rats. Conditions: oral, 14 days. The method, then: The inoculation of 0.5 mL was performed subcutaneously on the flank. The treatment of tumor bearing rats was started 8 days after tumor inoculation.
In the next assay the target is TIE2 (Homo sapiens, UniProt Q02763). Put plainly: Enzyme selectivity panel. Type of assay: biochemical. The note with it: 1 mM ATP.
TIE2, sequence (Q02763 23-1124, species assumed): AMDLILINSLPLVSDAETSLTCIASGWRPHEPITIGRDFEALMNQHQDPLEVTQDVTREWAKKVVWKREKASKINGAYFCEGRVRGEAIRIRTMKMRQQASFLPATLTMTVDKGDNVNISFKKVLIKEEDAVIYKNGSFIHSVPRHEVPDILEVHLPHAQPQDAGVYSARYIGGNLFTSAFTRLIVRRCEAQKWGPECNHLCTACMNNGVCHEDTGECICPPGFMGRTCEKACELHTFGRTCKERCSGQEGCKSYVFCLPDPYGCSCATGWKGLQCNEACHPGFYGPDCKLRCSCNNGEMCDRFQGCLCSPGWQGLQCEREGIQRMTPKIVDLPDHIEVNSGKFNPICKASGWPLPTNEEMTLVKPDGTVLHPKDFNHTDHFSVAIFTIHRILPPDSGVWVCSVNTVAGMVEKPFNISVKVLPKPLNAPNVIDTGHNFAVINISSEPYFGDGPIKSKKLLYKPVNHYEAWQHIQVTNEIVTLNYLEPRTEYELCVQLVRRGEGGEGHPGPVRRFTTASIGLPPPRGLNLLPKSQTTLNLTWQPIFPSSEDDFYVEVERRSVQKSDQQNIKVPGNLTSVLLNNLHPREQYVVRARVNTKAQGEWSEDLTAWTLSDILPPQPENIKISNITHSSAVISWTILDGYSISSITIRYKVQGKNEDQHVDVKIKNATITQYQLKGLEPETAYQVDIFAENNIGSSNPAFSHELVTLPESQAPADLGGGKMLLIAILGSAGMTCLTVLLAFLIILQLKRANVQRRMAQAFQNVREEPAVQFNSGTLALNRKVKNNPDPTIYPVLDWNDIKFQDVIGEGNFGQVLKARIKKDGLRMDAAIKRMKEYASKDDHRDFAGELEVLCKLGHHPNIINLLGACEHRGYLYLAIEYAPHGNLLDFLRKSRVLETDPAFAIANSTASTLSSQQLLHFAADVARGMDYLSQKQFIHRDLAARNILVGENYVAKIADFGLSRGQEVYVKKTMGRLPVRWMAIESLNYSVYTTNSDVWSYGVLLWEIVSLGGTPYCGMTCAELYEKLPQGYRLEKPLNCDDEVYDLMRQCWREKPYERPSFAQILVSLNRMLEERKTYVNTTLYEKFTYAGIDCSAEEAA
Another assay deals with J82. Put plainly: Cell viability assay (CellTiter-Glo). Conditions: Homo sapiens, Bladder, lacking FGFR alterations. Format: cell-based.
Assay [2] deals with myeloid/lymphoid neoplasm expressing CEP110-FGFR1. On the set-up: method as in PMID 29767670. Conditions: single patient, CEP110-FGFR1 fusion ref 40; cited from earlier work.
Another assay relates to HEK293. Kind of assay: Cell viability assay (CellTiter-Glo). The note with it: Homo sapiens, Embyronic kidney, lacking FGFR alterations. Type of assay: cell-based. Background: ATP-based viability assays read luminescence as a measure of living cells.
A further assay addresses STK4 (Homo sapiens, UniProt Q13043). Kind of assay: Enzyme selectivity panel. Type of assay: biochemical. Conditions: 1 mM ATP.
For the next assay, the system named is OPM-2 (myeloma). Put plainly: Cell viability assay (CellTiter-Glo). Format: cell-based. The note with it: Homo sapiens, IgH-FGFR3 translocation, 72 hours, read-out: Mean GI50 ± S.D.
The target in a further assay is T1, SGK1 (Homo sapiens, UniProt O00141).
T1 construct: purchased In-house HTRF panel (56 kinases) and PerkinElmer (161-kinase panel)
T1 sequence (O00141 whole entry, species assumed): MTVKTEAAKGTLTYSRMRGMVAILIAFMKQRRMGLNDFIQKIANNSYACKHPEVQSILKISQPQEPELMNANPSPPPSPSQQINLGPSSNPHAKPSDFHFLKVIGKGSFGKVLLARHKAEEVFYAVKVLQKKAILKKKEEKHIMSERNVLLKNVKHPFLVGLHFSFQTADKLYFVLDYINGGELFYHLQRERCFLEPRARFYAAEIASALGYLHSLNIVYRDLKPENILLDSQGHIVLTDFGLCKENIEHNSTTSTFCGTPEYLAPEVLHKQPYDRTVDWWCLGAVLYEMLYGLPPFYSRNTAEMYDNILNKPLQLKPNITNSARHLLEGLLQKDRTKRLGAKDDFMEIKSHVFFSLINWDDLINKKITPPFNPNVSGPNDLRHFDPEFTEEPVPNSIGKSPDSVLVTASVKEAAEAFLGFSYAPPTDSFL
Put plainly: Enzyme selectivity panel. Format: biochemical. Conditions: 1 mM ATP.

What is called IC50 is the concentration at which inhibition is half-maximal. A lower IC50 goes with greater potency. The GI50 is the concentration that inhibits growth by half.

Molecules are shown by their SMILES.

IGF1R, sequence (P08069 31-1367, species assumed): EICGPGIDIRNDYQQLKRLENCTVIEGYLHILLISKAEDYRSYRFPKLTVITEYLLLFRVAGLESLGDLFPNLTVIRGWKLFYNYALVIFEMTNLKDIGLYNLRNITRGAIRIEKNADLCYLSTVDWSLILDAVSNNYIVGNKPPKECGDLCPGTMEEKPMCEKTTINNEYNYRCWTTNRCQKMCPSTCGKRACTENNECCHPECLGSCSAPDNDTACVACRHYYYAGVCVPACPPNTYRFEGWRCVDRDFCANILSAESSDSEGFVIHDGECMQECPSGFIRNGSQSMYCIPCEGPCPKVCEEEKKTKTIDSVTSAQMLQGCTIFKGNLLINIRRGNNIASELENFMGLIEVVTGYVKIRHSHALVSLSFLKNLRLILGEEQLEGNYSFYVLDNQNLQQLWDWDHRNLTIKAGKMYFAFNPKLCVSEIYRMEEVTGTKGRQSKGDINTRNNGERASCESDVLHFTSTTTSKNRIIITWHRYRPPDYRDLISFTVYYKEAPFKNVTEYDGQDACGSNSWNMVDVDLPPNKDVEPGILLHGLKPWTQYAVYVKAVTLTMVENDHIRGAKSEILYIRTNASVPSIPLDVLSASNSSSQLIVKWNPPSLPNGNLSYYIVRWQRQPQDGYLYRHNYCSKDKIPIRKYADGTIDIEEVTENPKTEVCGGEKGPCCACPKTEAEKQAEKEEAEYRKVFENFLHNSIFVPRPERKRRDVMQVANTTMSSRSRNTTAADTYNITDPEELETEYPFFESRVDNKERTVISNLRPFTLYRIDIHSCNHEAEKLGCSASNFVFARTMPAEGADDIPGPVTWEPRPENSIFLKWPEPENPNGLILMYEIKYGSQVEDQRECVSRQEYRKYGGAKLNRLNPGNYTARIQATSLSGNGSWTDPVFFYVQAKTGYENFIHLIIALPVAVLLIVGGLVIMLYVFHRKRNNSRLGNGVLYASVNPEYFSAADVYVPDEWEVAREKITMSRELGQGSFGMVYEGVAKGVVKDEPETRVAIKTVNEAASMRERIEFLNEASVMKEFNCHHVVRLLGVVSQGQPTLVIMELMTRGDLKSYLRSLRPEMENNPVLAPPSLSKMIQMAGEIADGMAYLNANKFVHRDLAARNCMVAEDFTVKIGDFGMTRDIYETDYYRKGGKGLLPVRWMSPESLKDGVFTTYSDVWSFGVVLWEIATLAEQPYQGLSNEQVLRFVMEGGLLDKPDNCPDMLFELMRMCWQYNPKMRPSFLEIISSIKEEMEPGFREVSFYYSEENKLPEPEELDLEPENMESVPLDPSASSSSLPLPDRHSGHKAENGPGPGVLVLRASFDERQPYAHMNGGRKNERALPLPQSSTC
MAPKAPK2, sequence (P49137 whole entry, species assumed): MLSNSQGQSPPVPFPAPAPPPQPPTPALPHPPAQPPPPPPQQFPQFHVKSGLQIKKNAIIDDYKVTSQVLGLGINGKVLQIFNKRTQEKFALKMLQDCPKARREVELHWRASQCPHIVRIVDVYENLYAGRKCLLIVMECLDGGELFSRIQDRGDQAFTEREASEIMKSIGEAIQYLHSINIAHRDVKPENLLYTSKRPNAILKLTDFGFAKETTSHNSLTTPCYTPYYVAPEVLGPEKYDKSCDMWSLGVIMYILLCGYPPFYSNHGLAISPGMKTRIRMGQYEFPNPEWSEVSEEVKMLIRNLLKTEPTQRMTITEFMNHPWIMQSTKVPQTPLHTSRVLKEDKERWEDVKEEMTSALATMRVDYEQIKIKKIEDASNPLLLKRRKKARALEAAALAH
EGFR, sequence (P00533 25-1210, species assumed): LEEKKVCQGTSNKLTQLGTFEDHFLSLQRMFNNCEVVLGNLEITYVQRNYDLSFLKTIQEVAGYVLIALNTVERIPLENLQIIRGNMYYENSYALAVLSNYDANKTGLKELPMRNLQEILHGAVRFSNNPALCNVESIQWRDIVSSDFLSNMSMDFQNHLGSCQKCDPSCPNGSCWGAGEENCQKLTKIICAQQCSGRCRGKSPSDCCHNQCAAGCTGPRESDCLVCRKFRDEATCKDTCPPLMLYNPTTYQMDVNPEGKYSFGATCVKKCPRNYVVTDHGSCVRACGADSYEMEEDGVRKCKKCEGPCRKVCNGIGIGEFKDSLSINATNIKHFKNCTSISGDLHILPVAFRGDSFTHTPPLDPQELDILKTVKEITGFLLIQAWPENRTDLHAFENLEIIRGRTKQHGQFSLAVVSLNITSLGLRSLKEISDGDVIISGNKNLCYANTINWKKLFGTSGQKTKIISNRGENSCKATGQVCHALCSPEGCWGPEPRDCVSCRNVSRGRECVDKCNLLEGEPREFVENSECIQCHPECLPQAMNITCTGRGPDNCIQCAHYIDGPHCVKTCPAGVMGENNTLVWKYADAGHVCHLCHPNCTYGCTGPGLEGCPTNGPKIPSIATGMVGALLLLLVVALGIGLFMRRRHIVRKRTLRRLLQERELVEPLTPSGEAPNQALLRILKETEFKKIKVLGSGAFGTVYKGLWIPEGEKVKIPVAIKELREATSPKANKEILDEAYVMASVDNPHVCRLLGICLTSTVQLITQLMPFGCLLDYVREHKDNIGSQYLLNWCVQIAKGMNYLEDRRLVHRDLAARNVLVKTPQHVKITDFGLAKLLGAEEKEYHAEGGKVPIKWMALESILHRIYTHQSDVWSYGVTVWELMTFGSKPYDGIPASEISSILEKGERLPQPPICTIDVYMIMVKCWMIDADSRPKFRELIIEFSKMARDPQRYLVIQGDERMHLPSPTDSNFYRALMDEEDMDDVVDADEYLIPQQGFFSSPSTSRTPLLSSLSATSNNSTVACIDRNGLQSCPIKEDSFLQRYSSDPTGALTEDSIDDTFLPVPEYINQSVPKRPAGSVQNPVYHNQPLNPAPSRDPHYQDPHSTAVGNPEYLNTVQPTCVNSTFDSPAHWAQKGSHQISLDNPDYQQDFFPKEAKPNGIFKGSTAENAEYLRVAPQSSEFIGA
STK4, sequence (Q13043 whole entry, species assumed): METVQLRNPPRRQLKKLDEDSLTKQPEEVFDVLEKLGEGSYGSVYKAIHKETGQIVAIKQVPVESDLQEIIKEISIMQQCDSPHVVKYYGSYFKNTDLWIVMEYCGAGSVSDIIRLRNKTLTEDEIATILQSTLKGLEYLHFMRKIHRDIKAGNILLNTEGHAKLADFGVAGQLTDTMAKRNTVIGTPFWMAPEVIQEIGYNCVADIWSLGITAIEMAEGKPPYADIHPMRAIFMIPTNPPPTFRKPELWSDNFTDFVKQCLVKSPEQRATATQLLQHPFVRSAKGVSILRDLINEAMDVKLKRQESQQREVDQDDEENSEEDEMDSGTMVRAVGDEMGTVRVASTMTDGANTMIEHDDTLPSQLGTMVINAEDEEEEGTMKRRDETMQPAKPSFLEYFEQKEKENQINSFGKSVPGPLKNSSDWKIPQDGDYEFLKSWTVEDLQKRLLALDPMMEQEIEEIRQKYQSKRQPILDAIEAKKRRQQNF
Description for EGFR: (§1) The kinase assays were carried out at room temperature in HEPES 50 mM, pH 7.0, NaN3 0.02%, BSA 0.01%, Orthovanadate 0.1 mM, DTT 1 mM, MgCl2 10 mM in a final volume of 10 µL. Test compounds were transferred to the plate wells by ECHO liquid handler (Labcyte, San Jose, CA) with 0.5% dimethyl sulfoxide (DMSO) in the final assay. Peptide/kinase mixtures were diluted in the appropriate enzymatic buffer and 5µL of the mixture was added to a 384-well small volume black plate. Reactions were initiated by the addition of 5 µL ATP in reaction buffer, the final reaction mixture consisted of 500 nM peptide substrate, 1 mM ATP, and appropriate amount of specific kinase. […] The plates were then sealed and centrifuged at 1800 rpm for 2 minutes. […] Half maximal inhibitory concentration (IC50) determination was performed by fitting the curve of percent control activity versus the log of the compound concentration using the GraphPad Prism 6.0 software.
Description for IGF1R: as §1
Description for MAPKAPK2: as §1
Description for SGK1: as §1
Description for STK4: as §1
Description for TIE2: as §1

For `CCN1C(=O)N(c2c(F)c(OC)cc(OC)c2F)Cc2cnc3[nH]c(CN4CCOCC4)cc3c21` [INCB054828, pemigatinib], the IC50 against IGF1R, on MAPKAPK2, on EGFR, against TIE2, on STK4 and on SGK1 was more than 10 µM throughout. Moreover, the tumor growth inhibition entry in assay [1] (0.3 mg/kg once daily) and in [1] (1 mg/kg once daily) was “significant tumor growth inhibition” in each case. The GI50 is more than 5 µM with J82, more than 20 µM in the assay with HEK293 and 0.018 ± 0.009 µM in the assay on OPM-2 (myeloma). Further, the clinical response result in [2] was “complete cytogenetic and hematologic remission”.

The values are drawn from article PMC7313537 (PLoS ONE, 2020).
